The values that follow come from patent US8470810B2, “Heterocyclic compounds suitable for treating disorders that respond to modulation of the dopamine D3 receptor” (Abbott GmbH & Co. KG, priority 2004, dated 2013).

Experiment [1] concerns the target T1, human dopamine D3 receptors (Homo sapiens, UniProt P35462).
T1 construct: expressed in transfected cells
The experiment is described as follows: Dopamine D3 receptor binding, displacement of [125I]-iodosulpride. As to conditions: for Ki: membranes of HEK-293 cells stably expressing human D3, 0.1 nM [125I]-iodosulpride, 25° C., 60 minutes; for Ki(D2)*/Ki(D3)*: selectivity ratio of the receptor binding constants D2 over D3. The method in brief:
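Displacement of [125I]-iodosulpride at human D3 receptors in pH 7.4 Tris buffer with NaCl, KCl, CaCl2, MgCl2, 0.1% BSA, 10 μM quinolone and 0.1% ascorbic acid, 60 min at 25 °C, in triplicate. Bound label collected by filtration and counted; Ki from nonlinear regression of inhibition curves.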

Experiment [2] concerns the target T2, human dopamine D2L receptors (long isoform) (Homo sapiens, UniProt P14416).
T2 construct: expressed in transfected cells
Put plainly: Dopamine D2L receptor binding, displacement of [125I] iodospiperone. As to conditions: membranes of HEK-293 cells stably expressing human D2L; 0.01 nM [125I] iodospiperone; 25° C., 60 minutes; read-out: Ki(D2)*. The gist of the method:
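Displacement of [125I]iodospiperone from human D2L receptors, triplicates, in 50 mM Tris pH 7.4 with 120 mM NaCl, 5 mM KCl, 2 mM CaCl2, 2 mM MgCl2, 0.1% BSA. Incubated 60 min at 25 °C, then filtered and counted by scintillation. Ki came from iterative nonlinear regression of inhibition curves.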

T1 sequence (P35462 whole entry): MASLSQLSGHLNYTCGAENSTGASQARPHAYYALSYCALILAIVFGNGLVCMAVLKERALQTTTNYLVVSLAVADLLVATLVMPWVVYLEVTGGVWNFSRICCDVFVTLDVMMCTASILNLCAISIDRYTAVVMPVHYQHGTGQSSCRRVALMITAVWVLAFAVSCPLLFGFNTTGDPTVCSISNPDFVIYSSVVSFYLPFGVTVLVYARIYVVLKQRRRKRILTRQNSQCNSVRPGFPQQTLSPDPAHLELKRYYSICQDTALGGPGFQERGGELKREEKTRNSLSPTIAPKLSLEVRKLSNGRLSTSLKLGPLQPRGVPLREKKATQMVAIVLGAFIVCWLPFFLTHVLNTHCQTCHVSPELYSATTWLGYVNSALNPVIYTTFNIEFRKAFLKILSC
T2 sequence (P14416 whole entry, canonical isoform): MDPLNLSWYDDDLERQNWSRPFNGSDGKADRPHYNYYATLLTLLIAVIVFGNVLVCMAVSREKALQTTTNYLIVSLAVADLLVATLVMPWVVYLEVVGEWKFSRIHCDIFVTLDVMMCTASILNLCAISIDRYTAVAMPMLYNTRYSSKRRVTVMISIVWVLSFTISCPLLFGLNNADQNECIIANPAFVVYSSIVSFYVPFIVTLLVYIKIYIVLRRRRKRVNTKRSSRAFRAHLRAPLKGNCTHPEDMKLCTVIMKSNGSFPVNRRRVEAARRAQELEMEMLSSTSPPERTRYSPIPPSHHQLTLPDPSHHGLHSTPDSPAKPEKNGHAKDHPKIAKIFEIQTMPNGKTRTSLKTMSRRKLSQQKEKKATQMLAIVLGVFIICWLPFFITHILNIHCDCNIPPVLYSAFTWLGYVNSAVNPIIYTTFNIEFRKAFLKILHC

For the compound `CCCN1CC[C@@H](c2ccc(NS(=O)(=O)c3ccc(CCF)cc3)cc2)C1.Cl` [Example 86, 4-(2-Fluoro-ethyl)-N-[4-((S)-1-propyl-pyrrolidin-3-yl)-phenyl]-benzenesulfonamide, hydrochloride], the Ki came to 1.18 nM in experiment [1] and 119 nM in experiment [2]. In addition, the “Ki(D2)*/Ki(D3)*” value in experiment [1] came to 101.
Taken in the same sequence, the figures for `CCCN1CC[C@@H](c2ccc(NS(=O)(=O)c3ccc([C@H](C)CF)cc3)cc2)C1` [Example 87, 4-((S)-2-Fluoro-1-methyl-ethyl)-N-[4-((S)-1-propyl-pyrrolidin-3-yl)-phenyl]-benzenesulfonamide] were 0.55 nM, 20.5 nM and 37.
The matching figures for `CCCN1CC[C@@H](c2ccc(NS(=O)(=O)c3ccc(CCC(F)(F)F)cc3)cc2)C1` [Example 88, N-[4-((S)-1-Propyl-pyrrolidin-3-yl)-phenyl]-4-(3,3,3-trifluoro-Propyl)-benzenesulfonamide]: 0.92 nM, 41 nM and 45.
Taken in the same sequence, the figures for `CCCc1ccc(S(=O)(=O)Nc2ccc([C@@H]3CCN(CCC)C3)cc2)s1` [Example 89, 5-Propyl-thiophene-2-sulfonic acid [4-((S)-1-propyl-pyrrolidin-3-yl)-phenyl]-amide] were 0.6 nM, 27 nM and 45.
For `C=CCN1CC[C@H](c2ccc(NS(=O)(=O)c3ccc(C4CC4(F)F)cc3)cc2)C1` (stereo partly drawn) [Example 90, N-[4-((R)-1-Allyl-pyrrolidin-3-yl)-phenyl]-4-(2,2-difluoro-cyclopropyl)benzenesulfonamide], in experiment [1], the Ki was found to be 11 nM and the “Ki(D2)*/Ki(D3)*” value stood at 25. Moreover, in experiment [2], the Ki amounted to 280 nM.
As to `CCCN1CC[C@@H](c2ccc(NS(=O)(=O)c3ccc(CCCF)cc3)cc2)C1` [Example 92, 4-(3-Fluoro-propyl)-N-[4-((S)-1-propyl-pyrrolidin-3-yl)-phenyl]-benzenesulfonamide], in experiment [1], the affinity corresponds to a Ki of 0.61 nM and the “Ki(D2)*/Ki(D3)*” value was determined as 28. Besides, the Ki in experiment [2] stood at 17.3 nM.
As for `CCCN1CC[C@@H](c2ccc(NS(=O)(=O)c3ccc([C@@H](C)CF)cc3)cc2)C1` [Example 93, 4-((R)-2-Fluoro-1-methyl-ethyl)-N-[4-((S)-1-propyl-pyrrolidin-3-yl)-phenyl]-benzenesulfonamide], in experiment [1], the affinity corresponds to a Ki of 0.48 nM and the “Ki(D2)*/Ki(D3)*” value was determined as 31. The Ki in experiment [2] came out at 14.7 nM.
Taken in the same sequence, the figures for `CC(C)c1ccc(S(=O)(=O)Nc2ccc([C@@H]3CCN(CC4CC4)C3)cc2)cc1` [Example 94, N-[4-((S)-1-Cyclopropylmethyl-pyrrolidin-3-yl)-phenyl]-4-isopropyl-benzenesulfonamide] were 0.23 nM, 21 and 4.7 nM.
The matching figures for `CCCN1CC[C@@H](c2ccc(NS(=O)(=O)c3ccc(C(CF)CF)cc3)cc2)C1` [Example 95, 4-(2-Fluoro-1-fluoromethyl-ethyl)-N-[4-((S)-1-propyl-pyrrolidin-3-yl)-phenyl]-benzenesulfonamide]: 1.3 nM, 22 and 27.9 nM.
Taken in the same sequence, the figures for `CC(C)c1ccc(S(=O)(=O)Nc2ccc([C@@H]3CCN(CCF)C3)cc2)cc1` [Example 96, N-{4-[(S)-1-(2-Fluoro-ethyl)-pyrrolidin-3-yl]-phenyl}-4-isopropyl-benzenesulfonamide] were 0.83 nM, 70 and 57.8 nM.
With `C=CCN1CC[C@@H](c2ccc(NS(=O)(=O)c3ccc(OC(F)(F)F)cc3)cc2)C1` [Example 101, N-[4-((S)-1-Allyl-pyrrolidin-3-yl)-phenyl]-4-trifluoromethoxy-benzenesulfonamide], in experiment [1], the affinity, expressed as Ki, was 3.7 nM and the “Ki(D2)*/Ki(D3)*” value is on record as 73. For the same compound, the Ki in experiment [2] is 268 nM.
Taken in the same sequence, the figures for `O=S(=O)(Nc1ccc([C@@H]2CCNC2)cc1)c1ccc(OC(F)(F)F)cc1` [Example 102, N—((S)-4-Pyrrolidin-3-yl-phenyl)-4-trifluoromethoxy-benzenesulfonamide] were 52 nM, 52 and 2710 nM.
`CCCN1CC[C@@H](c2ccc(NS(=O)(=O)c3ccc(CC(F)(F)F)cc3)cc2)C1` [Example 103, N-[4-((S)-1-Propyl-pyrrolidin-3-yl)-phenyl]-4-(2,2,2-trifluoro-ethyl)benzenesulfonamide]: in experiment [1], affinity was put at a Ki of 1.2 nM and the “Ki(D2)*/Ki(D3)*” value stood at 38. The Ki in experiment [2] stood at 45 nM.
The matching figures for `CCN1CC[C@@H](c2ccc(NS(=O)(=O)c3ccc(OC(F)(F)F)cc3)cc2)C1` [Example 104, N-[4-((S)-1-Ethyl-pyrrolidin-3-yl)-phenyl]-4-trifluoromethoxy-benzenesulfonamide]: 8.3 nM, 43 and 352 nM.
The matching figures for `CCCN1CC[C@@H](c2ccc(NS(=O)(=O)c3ccc(Cl)s3)cc2)C1` [Example 105, 5-Chloro-thiophene-2-sulfonic acid [4-((S)-1-propyl-pyrrolidin-3-yl)-phenyl]-amide]: 6.1 nM, 51 and 309 nM.
The matching figures for `C=CCN1CC[C@@H](c2ccc(NS(=O)(=O)c3ccc(CCCF)cc3)cc2)C1` [Example 107, N-[4-((S)-1-Allyl-pyrrolidin-3-yl)-phenyl]-4-(3-fluoro-propyl)-benzene sulfonamide]: 0.42 nM, 108 and 45.8 nM.
Regarding `O=S(=O)(Nc1ccc([C@@H]2CCNC2)cc1)c1ccc(CCCF)cc1` [Example 108, 4-(3-Fluoro-propyl)-N—((S)-4-pyrrolidin-3-yl-phenyl)-benzenesulfonamide], in experiment [1], affinity was put at a Ki of 11.2 nM and the “Ki(D2)*/Ki(D3)*” value was 18. In addition, the inhibition constant Ki in experiment [2] is 204 nM.
Taken in the same sequence, the figures for `C[C@H](CF)c1ccc(S(=O)(=O)Nc2ccc([C@@H]3CCNC3)cc2)cc1` [Example 109, 4-((S)-2-Fluoro-1-methyl-ethyl)-N—((S)-4-pyrrolidin-3-yl-Phenyl)-benzenesulfonamide] were 7.4 nM, 35 and 258 nM.
The matching figures for `C[C@@H](CF)c1ccc(S(=O)(=O)Nc2ccc([C@@H]3CCNC3)cc2)cc1` [Example 110, 4-((R)-2-Fluoro-1-methyl-ethyl)-N—((S)-4-pyrrolidin-3-yl-phenyl)-benzenesulfonamide]: 6.6 nM, 135 and 895 nM.
The matching figures for `CN1CC[C@@H](c2ccc(NS(=O)(=O)c3ccc(OC(F)(F)F)cc3)cc2)C1` [Example 111, N-[4-((S)-1-Methyl-pyrrolidin-3-yl)-phenyl]-4-trifluoromethoxy-benzenesulfonamide]: 16.4 nM, 44 and 723 nM.
`C=CCN1CC[C@H](c2ccc(NS(=O)(=O)c3ccc(C(C)C(F)(F)F)cc3)cc2)C1` (stereo partly drawn) [Example 112, N-[4-((R)-1-Allyl-pyrrolidin-3-yl)-phenyl]-4-(2,2,2-trifluoro-1-methyl-ethyl)benzenesulfonamide]: the Ki in experiment [1] was 10.3 nM; in experiment [2], 1200 nM. Also, the “Ki(D2)*/Ki(D3)*” value in experiment [1] was found to be 116.
Taken in the same sequence, the figures for `C=CCN1CC[C@@H](c2ccc(NS(=O)(=O)c3ccc([C@@H](C)CF)cc3)cc2)C1` [Example 113, N-[4-((S)-1-Allyl-pyrrolidin-3-yl)-phenyl]-4-((R)-2-fluoro-1-methyl-ethyl)benzenesulfonamide] were 0.49 nM, 42.2 nM and 86.
The matching figures for `O=S(=O)(Nc1ccc([C@@H]2CCN(CCCF)C2)cc1)c1ccc(OC(F)(F)F)cc1` [Example 114, N-{4-[(S)-1-(3-Fluoro-propyl)-pyrrolidin-3-yl]-phenyl}-4-trifluoromethoxy-benzenesulfonamide]: 4.2 nM, 464 nM and 111.
Taken in the same sequence, the figures for `CCCN1CC[C@@H](c2ccc(NS(=O)(=O)c3ccc(-c4cnn(C)c4)cc3)cc2)C1` [Example 118, 4-(1-Methyl-1H-pyrazol-4-yl)-N-[4-((S)-1-propyl-pyrrolidin-3-yl)-phenyl]-benzenesulfonamide] were 36.6 nM, 1170 nM and 32.
As to `CCCN1CC[C@@H](c2ccc(NS(=O)(=O)c3ccc(N4CCOCC4)cc3)cc2)C1.Cl` [Example 120, 4-Morpholin-4-yl-N-[4-((S)-1-propyl-pyrrolidin-3-yl)-phenyl]-benzenesulfonamide hydrochloride], in experiment [1], the affinity corresponds to a Ki of 2 nM and the “Ki(D2)*/Ki(D3)*” value came to 86. In addition, the Ki in experiment [2] was found to be 174 nM.
The matching figures for `CCCN1CC[C@@H](c2ccc(NS(=O)(=O)c3ccc(OCc4ccccc4)cc3)cc2)C1` [Example 121, 4-Benzyloxy-N-[4-((S)-1-propyl-pyrrolidin-3-yl)-phenyl]-benzenesulfonamide]: 3.7 nM, 44 and 163 nM.
For `CCCN1CC[C@@H](c2ccc(NS(=O)(=O)c3ccc(O)cc3)cc2)C1` [Example 122, 4-Hydroxy-N-[4-((S)-1-propyl-pyrrolidin-3-yl)-phenyl]-benzenesulfonamide], in experiment [1], the affinity, expressed as Ki, was 43.9 nM and the “Ki(D2)*/Ki(D3)*” value is recorded as 31. The Ki in experiment [2] worked out at 1340 nM.
